From patent EP2084165B1, “POSITIVELY CHARGED WATER-SOLUBLE PRODRUGS OF OXICAMS AND RELATED COMPOUNDS WITH VERY HIGH SKIN PENETRATION RATE” (Techfields Biochem Co. Ltd, priority 2006, dated 2008)
Structures can show the parent of a compound that is named as a salt. Where two headings read alike, the source gives them in different places.

Legend:
[1] = Acute toxicity, LD50 orally in mice; format: in vivo; conditions: mouse, in vivo
Description: (§1) The acute toxicity of the prodrugs was investigated. […].

Solubility in water = conditions: for solubility: water, solubility in water
in vivo = conditions: mouse, topical or ocular
Method: The donor consisted of a 20% solution of these compounds in 1 mL of isopropanol applied to a 10 cm^2 on the backs of the hairless mice. Plasma levels of drugs were determined by a specific high-performance liquid chromatography method.

mice [2] = test: Acute toxicity, LD50 orally in mice; format: in vivo; conditions: oral, mice
Description: as §1

mice [3] = test: Analgesic activity: acetic acid writhing test in mice; format: in vivo; conditions: for No. of Writhings: 50 mg/kg transdermally 60 minutes before acetic acid solution intraperitoneally, control group 35.0; for Rate of Inhibition (%): 50 mg/kg transdermally 60 minutes before acetic acid solution, based on the control group
Method: The number of writhings that occurred when mice were administered an acetic acid solution intraperitoneally were counted, and the rate of inhibition based on the control group was calculated. […] The group A is the control group.

Rats = test: Antipyretic activity: rats given sterilized E. coli suspension as pyrogen; format: in vivo; conditions: 25 mg/kg transdermally 2 hours after E. coli pyrogen, in °C (unit assumed)
Method: Antipyretic activity: Rats received a sterilized E. coli suspension as a pyrogen. […] The body temperature of the rats was taken at 90 min. intervals before and after the administration of the test compounds.

[4] = prodrug versus the drug itself (testosterone); cited from earlier work
[5] = oral, mice, read-out: LD50 orally in mice

Compound | LD50 ([1]; po) [mg/kg] | solubility (Solubility in water) [mg/mL] | Cmax (in vivo) [µg/mL] | Tmax (in vivo) [min] | No. of Writhings (mice [3]) | Rate of Inhibition (%) (mice [3]) | body temperature of the rats, t = 0 min. (Rats) | body temperature of the rats, t = 90 min. (Rats) | body temperature of the rats, t = 180 min. (Rats) | body temperature of the rats, t = 270 min. (Rats) | also measured
CN(C)CCCC(=O)OC1=C(C(=O)Nc2ccccn2)N(C)S(=O)(=O)c2ccsc21 | 500 | > 300 | ~500 | ~50 | – | – | – | – | – | – | –
CN(C)CCCC(=O)OC1=C(C(=O)Nc2ccccn2)N(C)S(=O)(=O)c2ccccc21 | 550 | > 300 | ~500 | ~50 | – | – | – | – | – | – | –
Cc1cnc(NC(=O)C2=C(OC(=O)CCCN(C)C)c3ccccc3S(=O)(=O)N2C)s1.Cl | – | – | – | – | – | – | – | – | – | – | time until peak plasma levels were reached after application of the donor systems (in vivo): ~50 min
CN(C)CCCC(=O)OC1=C(C(=O)Nc2ccccn2)N(C)S(=O)(=O)c2cc(Cl)sc21 | 580 | > 300 | ~500 | ~50 | – | – | – | – | – | – | –
CN(C)CCCC(=O)OC(Nc1ccccn1)=C1C(=O)c2sc(Cl)cc2S(=O)(=O)N1C | 610 | > 300 | ~500 | ~50 | – | – | – | – | – | – | –
CN(C)CCCC(=O)OC1=C(C(=O)Nc2nccs2)N(C)S(=O)(=O)c2ccccc21 | 670 | – | – | ~50 | – | – | – | – | – | – | –
4- N,N-dimethylaminobutyryloxy - 2-methyl-N-[5-Methyl-3-isoxolyl-2H-1,2-benzothiazine-3-carboxamide 1,1-dioxide] .HCl [G] | – | – | – | – | 15.8 | 55 | 37.52±0.06 | 36.62±0.07 | 36.53±0.06 | 36.60±0.05 | LD50 orally in mice (mice [2]): 570 mg/kg; peak plasma levels (in vivo): ~0.5 mg/mL; time until peak plasma levels were reached after application of the donor systems (in vivo): ~50 min
CN(C)CCCC(=O)OC1=C(C(=O)Nc2ccccn2)N(C)S(=O)(=O)c2ccccc21 [B, 4-N,N-dimethylaminobutyryloxy-2-methyl-N-2-pyridinyl-2H,1,2-benzothiazine-3-carb oxamide 1,1-dioxide.HCl] | – | – | – | – | 15.6 | 55 | 37.57±0.06 | 36.51±0.05 | 36.40±0.06 | 36.45±0.07 | solubility in water (Solubility in water): 250 mg/mL
CN(C)CCCC(=O)OC1=C(C(=O)Nc2nccs2)N(C)S(=O)(=O)c2ccccc21 [C, N-(2-thiazoyl)-4-N,N-dimethylaminobutyryloxy-2-methyl-2H,1,2-benzothiazine-3-carbo xamide 1,1-dioxide.HCl] | – | > 300 | ~500 | – | 15.7 | 55 | 37.50±0.07 | 36.61±0.04 | 36.50±0.07 | 36.60±0.05 | solubility in water (Solubility in water; listed as N-(2-thiazolyl)-4-N,N-dimethylaminobutyryloxy-2-methyl-2H,1,2-benzothiazine-3-ca): 250 mg/mL
CN(C)CCCC(=O)OC1=C(C(=O)Nc2ccccn2)N(C)S(=O)(=O)c2cc(Cl)sc21 [Compound D, 6-chloro-4-N,N-dimethylaminobutyryloxy-2-methyl-N-2-pyridinyl-2H-thieno[2,3-e]-1 ,2-thiazine-3-carboxamide 1,1-dioxide.HCl] | – | – | – | – | 16.5 | 53 | 37.55±0.05 | 36.66±0.06 | 36.60±0.06 | 36.61±0.07 | solubility in water (Solubility in water): 250 mg/mL
CN(C)CCCC(=O)OC1=C(C(=O)Nc2ccccn2)N(C)S(=O)(=O)c2ccsc21 [E, 4-N,N-dimethylaminobutyryloxy-2-methyl-N-2-pyridinyl-2H-thieno[2,3-e]-1,2-thiazine-3-carboxamide 1,1-dioxide.HCl] | – | – | – | – | 16.9 | 53 | 37.54±0.06 | 36.61±0.06 | 36.58±0.08 | 36.55±0.05 | solubility in water (Solubility in water): 250 mg/mL
CN(C)CCCC(=O)OC(Nc1ccccn1)=C1C(=O)c2sc(Cl)cc2S(=O)(=O)N1C.Cl [F, 8-chloro-(4-N,N-dimethylaminobutyryloxy-pyridine-2-ylamino-methylidene)-3-methy 1-2,2-dioxo-2λ^6'7-dithia-3-azabicyclo[4,3,0]nona-8,10-dien-5-one.HCl] | – | – | – | – | 17.5 | 50 | 37.53±0.05 | 36.57±0.05 | 36.52±0.07 | 36.51±0.06 | –
Cc1cnc(NC(=O)C2=C(OC(=O)CCCN(C)C)c3ccccc3S(=O)(=O)N2C)s1 [H, 4-N,N-dimethylaminobutyryloxy-2-methyl-N-(5-methyl-2-thiazolyl)-2H-1,2-benzothiazine-3-carboxamide-1,1-dioxide.HCl] | – | – | ~500 | – | 18.2 | 48 | 37.57±0.07 | 36.53±0.08 | 36.52±0.08 | 36.50±0.07 | LD50 [1, 5]: 590 mg/kg
CN1C(C(=O)Nc2ccccn2)=C(O)c2ccccc2S1(=O)=O [Piroxicam, reference compound] | – | – | ~5 | – | – | – | – | – | – | – | LD50 [1, 5]: 360 mg/kg
CN(C)CCCC(=O)O[C@H]1CC[C@H]2[C@@H]3CCC4=CC(=O)CC[C@]4(C)[C@H]3CC[C@]12C.Cl [TSBH, testosteronyl-4-dimethylaminobutyrate.HCl] | – | – | – | – | – | – | – | – | – | – | diffuses through human skin faster than does the drug itself [4]: ~ 60 times
CN1C(C(=O)Nc2nccs2)=C(O)c2ccccc2S1(=O)=O [sudoxiam, reference compound] | – | – | – | – | – | – | – | – | – | – | peak plasma levels (in vivo): ~0.005 mg/mL
